Here are results for four molecules from paper PMC5199130 (Molecular Systems Biology, 2016).

The target in one data set is T1, MavQ (Legionella pneumophila, UniProt Q5ZRA8).
T1 construct: gene lpg2975

The target in data set [1] is RavJ (Lpg0944) 1–230, purified (Legionella pneumophila str. Philadelphia-1) (UniProt Q5ZWY9). The data set can be described thus: crystal structure.
The data set “crystal structure” deals with the molecule itself. As to the kind of experiment: crystal structure.

What is called stoichiometry N is a count of units in the complex or per binding partner.

Turning to `Nc1ncnc2c1ncn2[C@@H]1O[C@H](COP(=O)(O)OP(=O)(O)OP(=O)(O)O)[C@@H](O)[C@H]1O` [ATP], the ADP-Glo kinase assay result at MavQ is on record as “wild‐type MavQ, but not the D147A mutant, possesses robust ATP hydrolysis activity”.

As to `CCCCCCCC(=O)OC[C@H](COP(=O)(O)O[C@@H]1[C@H](O)[C@H](O)[C@@H](O)[C@H](O)[C@H]1O)OC(=O)CCCCCCC` [PI diC8], the ADP-Glo kinase assay result at MavQ was “addition of phosphoinositide to this reaction increased the activity of the wild‐type MavQ fivefold”. “LegL1 (Lpg0945) 1–296, purified (from UniProt Q5ZWY8 1-296) (natural protein)” showed a stoichiometry N in data set [1] of 1.

B1: Lem14 (Lpg1851) 1–220, purified and crystallised (natural protein)
chain: MSFELVAYEKLKGSIRESIITLIKSHNEKAKIIEDKLEYSVKEVSRERQPQVLVLLKTIELLDNSSKEPEDKARVLNALAYYIRDQIAATYKYTSPDNSDFYKSLTISLDLNKDNNPNREDLADMYSALEKFLRSHVYKNSDPRKGYLDKQPFAIKHYSVVDDILELSDRVHKLRHEIIIAARDLHLLQQKPKSSQGGLFSVPSGKEKVTDTHEVANHRL
Consider B1, for which, in the data set “crystal structure”, the “stoichiometry N” value worked out at 2.
